Experimental data from patent US20080319042A1, “Compositions and methods for treatment of liver disease” (priority 2007, published 2008).

Tested on: Hep G2 2.2.15 cells
Test: Cytotoxicity Assay (MTT)
Assay type: cell-based, human
Method: Hep G2 2.2.15 cells (120 μl) were seeded onto 96-well plates at a concentration of 2×10^5 cells/mL. After incubation for 72 h, serial dilutions of the test samples were added to monolayer Hep G2 2.2.15 cells, and culture at 37° C. in a humidified atmosphere of 5% CO2 in air for an additional 9 days, and the medium with sample was changed every 3 days, 10 μL 10% aqueous DMSO was used as control group. After incubation, the supernatant was taken out and 90 μL of DMEM and 10 μL of the 5 mg/ml MTT (3-[4,5-dimethylthiazol-2-yl]-2,5-diphenyltetrazolium bromide) solution was then added to each well, and the plates were incubated for an additional 3 hours. The MTT was removed, and to each well was added 100 μl of DMSO. The plates were agitated on an orbital shaker at 50 rpm at room temperature for 5 min. The optical density of each sample was measured at 490 nm. The percent absorbance of the samples treated with the test material was compared to the untreated sample to calculate the percentage of control. Data are expressed as relative viability, with cytotoxicity indicated by <100% relative viability.

COC(=O)C1=COC(O)C2C1C(O)C(O)C2(C)O (mixture of isomers) [lamiridosin]
Toxicity to Hep G2 2.2.15 cells (Table 2) (75 μg/mL): Toxic
Toxicity to Hep G2 2.2.15 cells (Table 2) (150 μg/mL): Toxic
cytotoxicity to the Hep G2 2.2.15 cells (at doses greater than 50 μg/ml): non-cytotoxic
